The values below come from patent EP0206858A1, “Process for the synthesis of macromolecular derivatives of nicotinamide adenine” (SOCIETE NATIONALE ELF AQUITAINE, priority 1985, dated 1986).

One assay concerns L-lactate déshydrogénase. As to the kind of experiment: Initial rate of oxidation of the reduced forms with L-lactate dehydrogenase (Example 7). The conditions noted are these: reduced forms after Na2S2O4 treatment; coenzyme 0,17 mM, Tris HCl 50 mM, 16 mM sodium pyruvate, 17 mU L-lactate dehydrogenase; NADH = 100. In kind it is biochemical. The protocol:
Ces mêmes produits, mais sous forme réduite après traitement au Na2S2O4, sont soumis à un essai de mesure de la vitesse initiale d'oxydation avec l'enzyme L-lactate déshydrogénase.
Cette mesure s'effectue sur un milieu réactionnel de 0,5 ml contenant le coenzyme 0,17 mM (exprimé comme dans l'exemple 6) le même tampon 50 mM, 16 mM en pyruvate de sodium et 17 mU de L-lactate déshydrogènase à 700 U/mg. A titre comparatif la même mesure est effectuée sur NADH et le dérivé de formule 4 réduit.

For the next assay, the system named is hydrogénase. As to the kind of experiment: Initial rate of reduction with a hydrogenase (Example 6). In kind it is biochemical. The conditions noted are these: coenzyme 0,17 mM expressed as bound NAD+, Tris HCl pH8,0 50 mM, hydrogen at saturation, 29 mU hydrogenase; NAD+ = 100. The protocol: Les produits A à E préparés selon les procédés décrits dans les exemples 1 à 5 précédents sont soumis à un essai de mesure de la vitesse initale de réduction avec une hydrogénase.
Cette mesure s'effectue sur un milieu réactionnel de 0,28 ml contenant le coenzyme 0,17 mM, exprimé en NAD^+ lié pour les dérivés du NAD^+, 50 mM en tampon pH8,0 Tris HCl, de l'hydrogène à saturation et 29 mU d'enzyme hy- drogènase à 21 U/mg.
A titre comparatif la même mesure est effectuée sur le noyau NAD^+ et sur les dérivés substitués de formules (4) et (5).

For the compound `NCCCCCCNc1nc2c(N)ncnc2n1[C@@H]1O[C@H](COP(=O)(O)OP(=O)(O)OC[C@H]2O[C@@H](N3C=CCC(C(N)=O)=C3)[C@H](O)[C@@H]2O)[C@@H](O)[C@H]1O` [Dérivé (4) réduit], the “Taux initial d'oxydation (%)” value in the assay on L-lactate déshydrogénase is 62,5%.

In the case of `NC(=O)c1ccc[n+]([C@@H]2O[C@H](COP(=O)([O-])OP(=O)(O)OC[C@H]3O[C@@H](n4cnc5c(N)ncnc54)[C@H](O)[C@@H]3O)[C@@H](O)[C@H]2O)c1` [NAD^+], the “Taux initial de réduction (%)” value in the assay with hydrogénase stood at 100%.

For the compound `NC(=O)C1=CN([C@@H]2O[C@H](COP(=O)(O)OP(=O)(O)OC[C@H]3O[C@@H](n4cnc5c(N)ncnc54)[C@H](O)[C@@H]3O)[C@@H](O)[C@H]2O)C=CC1` [NADH, nicotinamide adénine dinucléotide], the “Taux initial d'oxydation (%)” value in the assay with L-lactate déshydrogénase was found to be 100%.

With `NCCCCCCNc1nc2c(N)ncnc2n1[C@@H]1O[C@H](COP(=O)(O)OP(=O)([O-])OC[C@H]2O[C@@H]([n+]3cccc(C(N)=O)c3)[C@H](O)[C@@H]2O)[C@@H](O)[C@H]1O` [Dérivé (4), C^8-(6-aminohexyl)-amino-NAD^+], in the assay on hydrogénase, the “Taux initial de réduction (%)” value was 50%.

On to `NCCNc1ncnc2c1ncn2[C@@H]1O[C@H](COP(=O)(O)OP(=O)([O-])OC[C@H]2O[C@@H]([n+]3cccc(C(N)=O)c3)[C@H](O)[C@@H]2O)[C@@H](O)[C@H]1O` [Dérivé (5), N^6-(2-aminoéthyl)-NAD^+], for which the “Taux initial de réduction (%)” value with hydrogénase stood at 90%.
